The assay concerns the target T1, Tyrosine-protein kinase ITK/TSK (Homo sapiens, UniProt Q08881).
T1 sequence (Q08881 whole entry): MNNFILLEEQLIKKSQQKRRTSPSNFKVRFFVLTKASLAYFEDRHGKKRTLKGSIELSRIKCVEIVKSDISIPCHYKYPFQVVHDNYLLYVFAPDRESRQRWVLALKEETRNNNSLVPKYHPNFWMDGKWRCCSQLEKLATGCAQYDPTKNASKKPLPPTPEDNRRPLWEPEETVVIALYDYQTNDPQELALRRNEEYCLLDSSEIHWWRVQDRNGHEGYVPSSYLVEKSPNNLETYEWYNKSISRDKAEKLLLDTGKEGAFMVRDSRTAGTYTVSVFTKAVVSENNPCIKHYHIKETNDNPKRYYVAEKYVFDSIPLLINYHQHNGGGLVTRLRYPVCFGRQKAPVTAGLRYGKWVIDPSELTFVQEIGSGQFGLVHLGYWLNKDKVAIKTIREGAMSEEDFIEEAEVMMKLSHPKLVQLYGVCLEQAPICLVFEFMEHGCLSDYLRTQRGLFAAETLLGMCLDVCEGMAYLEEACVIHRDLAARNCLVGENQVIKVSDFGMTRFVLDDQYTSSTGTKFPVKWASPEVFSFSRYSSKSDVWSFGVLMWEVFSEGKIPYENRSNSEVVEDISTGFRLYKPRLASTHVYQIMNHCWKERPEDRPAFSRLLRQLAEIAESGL
Put plainly: Inhibition of ITK (unknown origin) using Acetyl-EFPIYDFLPAKKK-NH2 peptide as substrate after 1 hr by LC-MS analysis.

For orientation: Ki means a measure of affinity in units of concentration, obtained from inhibition or displacement. High values mean lower affinity, low ones higher affinity. For `CC12Cc3[nH]nc(C(=O)Nc4cnn(C(CS(C)(=O)=O)c5cccnc5)c4)c3CC1C2` (stereo unspecified), the inhibition constant Ki was below 0.1 nM.
